Test [1] has as its system drug-induced voiding dysfunction model rat. Description: Effect on drug-induced voiding dysfunction model rat. The test is classed as in vivo. Conditions: male SD rats; atropine sulfate + midodrine hydrochloride induced voiding dysfunction; inhibition of decrease in voiding efficiency or increase of residual urine; P<0.05. From the text: Male Sprague Dawley (SD) rats (Japan SLC, Inc.) were anesthetized with isoflurane and a cannula was placed in the bladder, the stomach, and the jugular vein. Then, the rats were awakened in a Baellman cage (Natsume Seisakusho Co., Ltd.). After a post-operative stabilization period, physiological saline was continuously infused into the bladder by an infusion pump (Terumo Corporation, product number: TE-331 S, STC-528) to induce voiding. Infusion of the physiological saline was stopped as soon as the voiding began, and the amount of the voided urine was measured using an electronic top-loading balance installed under the Ballman cage. After voiding ended, the residual urine was collected by gravity through the cannula implanted into the bladder and weighed, and the weight was taken as the amount of the residual urine. Furthermore, the intravesical pressure was measured by a pressure transducer (Nihon Kohden Corporation, product numbers: DX-100) through the bladder cannula. The test compound or the vehicle was administered into the stomach, and atropine sulfate (Sigma-Aldrich Co. LLC., 0.01 mg/kg) as an anticholinergic drug and midodrine hydrochloride (Sigma-Aldrich Co. LLC., 0.3 mg/kg) as an a adrenergic receptor agonist were intravenously administered to induce voiding dysfunction. The voiding efficiency (=[voided amount/(voided amount+amount of residual urine)]×100) and the amount of the residual urine before and after the administration of the test compound or the vehicle were measured, and the amount changed was evaluated. The value obtained by the administration of the vehicle and the value obtained by the administration of the test compound were compared in a Dunnett's multiple comparison test with a statistically significant difference (P<0.05), and the minimum dose at which the inhibitory action on a decrease in voiding efficiency or on an increase of the amount of residual urine observed was defined as a minimum effective dose (4 rats per group).

The test system of test [2] is phenylephrine-induced urethral pressure increase. In words: Effect on rat urethral pressure (phenylephrine-induced urethral pressure increase). The test is classed as in vivo. The note with it: read-out: ID40. The procedure:
The present Test Example was performed by partially modifying the technique reported as a testing system for evaluating a urethral resistance-reducing action (European Journal of Pharmacology, 679, 127-131 (2012)). Male Wistar rats (Charles River Laboratories Japan, Inc.) were anesthetized with urethane (1.2 g/kg ip), and immobilized in a supine position. The midline incision was performed in the lower abdominal portion such that the bladder was exposed. The bladder apex was incised, and from the incision site, a microchip pressure transducer catheter (3.5 Fr, Millar, Inc) was inserted and implanted into the inside of the urethra. In addition, a cannula for drug administration was implanted into the femoral vein. After the urethral pressure was stabilized, phenylephrine hydrochloride (Sigma-Aldrich Co. LLC., 30 μg/kg) was intravenously administered to induce an increase in the urethral pressure. At an interval of about 30 minutes, the above operation was repeated twice or more so as to confirm the stability of the phenylephrine hydrochloride-induced urethral pressure increasing reaction. Then, a test compound (dissolved in 20% dimethyl acetamide, 10% Cremophor (registered trademark), and 70% physiological saline) was intravenously administered, and after 5 minutes, phenylephrine hydrochloride was administered. The procedure of the administration of the test compound and the administration of phenylephrine hydrochloride was repeated at an interval of about 30 minutes, and 3 to 5 doses of the test compound was evaluated (the test compound was administered at increasing doses). The obtained data was introduced into a personal computer through PowerLab (registered trademark) (ADInstruments, Inc.) and analyzed using LabChart (registered trademark) (ADInstruments, Inc.). For the evaluation, the value (AUC value, mmHg-s) of the area under the urethral pressure for one minute before and after administration of phenylephrine hydrochloride was determined to calculate the difference (ΔAUC value) between the AUC value before the administration of phenylephrine hydrochloride and the AUC value after the administration of phenylephrine hydrochloride. The ΔAUC value obtained before administering the test compound was regarded as being 100%, and based on this, the ratio (reaction rate) of the ΔAUC value of the test compound at each dose was calculated. The dose at which the obtained reaction rate became 60% (40% as an inhibition rate) was defined as ID40, and the ID40 values of the test compounds were calculated by non-linear regression.

In another test the target is T1, human MC3 receptor (Homo sapiens, UniProt P41968).
T1 construct: expressed in transfected cells; host or cells: FreeStyle 293-F cells (transient, electroporation)
T1 sequence (P41968 whole entry): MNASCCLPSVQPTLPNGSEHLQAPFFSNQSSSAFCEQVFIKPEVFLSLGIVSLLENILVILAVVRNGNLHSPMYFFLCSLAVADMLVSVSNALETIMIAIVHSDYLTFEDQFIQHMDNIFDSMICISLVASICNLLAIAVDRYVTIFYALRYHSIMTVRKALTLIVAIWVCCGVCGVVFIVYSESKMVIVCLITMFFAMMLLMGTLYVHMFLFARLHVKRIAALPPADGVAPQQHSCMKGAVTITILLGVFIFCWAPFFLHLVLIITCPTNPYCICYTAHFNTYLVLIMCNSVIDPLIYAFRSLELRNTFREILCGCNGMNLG
Description: Human MC3 receptor activation, cAMP production in cells transiently expressing the receptor. Type of test: cell-based. The note with it: FreeStyle 293-F cells expressing human MC3 receptor, α-MSH maximum = 100%. The text has this:
(1) Construction of Human MC Receptor-Expressing Vector
A human MC4 receptor gene (GenBank Accession No.: NM_005912.2), a human MC1 receptor gene (GenBank Accession No.: NM_002386.3), or a human MC3 receptor gene (GenBank Accession No.: NM_019888.3) was introduced into an expression vector pcDNA™ 3.1N/V5-His TOPO (registered trademark) (Thermo Fisher Scientific Inc).
(2) Construction of Cells Transiently Expressing Human MC Receptor
An expression vector for a human MC4, MC1, or MC3 receptor was introduced into FreeStyle™ 293-F cells (Thermo Fisher Scientific Inc., product number: R790-07). For the introduction, electroporation was employed. That is, 1×10^7 FreeStyle™ 293-F cells were suspended in 80 μL of an Electroporation Buffer (Thermo Fisher Scientific Inc., product number: B201-100), and 20 μg of the expression vector was added thereto. The resultant was put into a cuvette (OC-100 Processing Assembly, MaxCyte, Inc.) and electroporated with MaxCyte STX (registered trademark) (MaxCyte, Inc.). The cells were cultured for a day, suspended in a Cell Banker (registered trademark) 1 (TAKARA BIO INC. or JUJI FIELD Inc., product number: BLC-1), and stored frozen until they were used.
(3) Measurement of Amount of cAMP Production
Measurement was carried out by using a LANCE (registered trademark) Ultra cAMP Kit (PerkinElmer, Inc.) in accordance with the attached instructions. That is, after dissolution in DMSO, the test compound (a final concentration of 1 pM to 30 μM) diluted with an assay buffer (Hank's balanced salt solution, 5 mM 4-(2-hydroxyethyl)-1-piperazineethanesulfonic acid (HEPES), 0.5 mM 3-isobutyl-1-methylxanthine (IBMX), 0.1% bovine serum albumin, pH 7.4), or α-MSH (Bachem Inc., a final concentration of 1 pM to 30 μM) was added to OptiPlate-384 (PerkinElmer, Inc.). Furthermore, the suspension of the cells transiently expressing the human MC4, MC1, or MC3 receptor prepared using the assay buffer was added thereto at 1,000 cells/well, and then left to stand at room temperature for about 1 hour. Thereafter, an Eu-cAMP tracer solution and an ULight™-anti-cAMP solution were added thereto, and then the resulting solution was left to stand at room temperature for about 1 hour. The amount of cAMP was calculated using EnVision (registered trademark) (PerkinElmer Inc.).
For the agonistic activity, the efficacy (EC50 (μM)) was calculated by a non-linear regression method with a Sigmoid-Emax model, by defining the maximum reaction using α-MSH as 100% and the reaction using the vehicle alone as 0%, respectively.
(In general: Changes in cAMP serve as a functional read-out for many G protein-coupled receptors.)

Setting [3] is: male Wistar rats, urethane anesthesia, intravenous, dose giving 40% inhibition of phenylephrine-induced urethral pressure ΔAUC.

5 compounds from patent US10710988B2, “Piperazine derivative” (Astellas Pharma Inc., priority 2016, dated 2020) can be followed below.

A word on the EC50: it is the concentration needed to bring the measured effect to its halfway point.

Where two headings read alike, the source gives them in different places.

As for `CC(=O)N[C@@H](CC(C)(C)C)C(=O)N1C[C@H](C)N(C(=O)[C@@H]2CN(C(C)(C)C)C[C@H]2c2ccc(F)cc2F)C[C@H]1C.Cl` [Example 4, N-{(2S)-1-[(2R,5S)-4-{[(3 S,4R)-1-tert-butyl-4-(2,4-difluorophenyl)pyrrolidin-3-yl]carbonyl}-2,5-dimethylpiperazin-1-yl]-4,4-dimethyl-1-oxopentan-2-yl}acetamide monohydrochloride], in test [1], the “MED (minimum effective dose)” value worked out at 0.01 mg/kg ig. Moreover, in test [2] (setting [3]), the ED40 amounted to 11 mg/kg. The EC50 at human MC3 receptor was found to be 270 nM.
Take `CC(=O)N[C@@H](CC(C)C)C(=O)N1CCN(C(=O)[C@@H]2CN(C(C)(C)C)C[C@H]2c2ccc(Cl)cc2F)C[C@H]1C` [Example 5]: in test [1], the “MED (minimum effective dose)” value is given as 0.01 mg/kg ig. For the same compound, the ED40 in test [2] (iv) was determined as 25 mg/kg. Also, the EC50 at human MC3 receptor is 550 nM.
On to `CC(=O)N[C@H](C(=O)N1CCN(C(=O)[C@@H]2CN(C(C)(C)C)C[C@H]2c2ccc(F)cc2F)[C@@H](C)C1)C1CCCCC1.Cl` [Example 6, N-{(1S)-2-[(3S)-4-{[(3S,4R)-1-tert-butyl-4-(2,4-difluorophenyl)pyrrolidin-3-yl]carbonyl}-3-methylpiperazin-1-yl]-1-cyclohexyl-2-oxoethyl}acetamide monohydrochloride], for which, in test [1], the “MED (minimum effective dose)” value worked out at 0.03 mg/kg ig. The ED40 in test [2] (setting [3]) was 46 mg/kg. Further, the concentration giving a half-maximal response (EC50) on human MC3 receptor turned out to be 1800 nM.
On the same counts, the results for `CC(=O)N[C@@H](CC(C)(C)C)C(=O)N1CCN(C(=O)[C@@H]2CN(C(C)(C)C)C[C@H]2c2ccc(F)cc2F)[C@@H](C)C1.Cl` [Example 8] are 0.01 mg/kg ig, 15 mg/kg and 1000 nM.
For `CC(=O)N[C@@H](CC(C)(C)C)C(=O)N1C[C@H](C)N(C(=O)C2CN(C(C)(C)C)CC2c2ccc(F)cc2)C[C@H]1C.Cl` (stereo partly drawn) [Example 11], the “MED (minimum effective dose)” value in test [1] turned out to be 0.03 mg/kg ig. Further, the ED40 in test [2] (setting [3]) came out at 28 mg/kg. The compound further had an EC50 at human MC3 receptor of 890 nM.
